Legend:
Assay type in all cases: in vivo
[1] = test system: Plasmopara viticola; assay: Test A: grape downy mildew, spray after inoculation of grape seedlings; settings: inoculated, 24 h later sprayed to run-off, visual disease rating, test concentration not given
Description: General protocol for preparing test suspensions for Test A-C: The test compounds were first dissolved in acetone in an amount equal to 3% of the final volume and then suspended at the desired concentration (in ppm) in acetone and purified water (50/50 mix by volume) containing 250 ppm of the surfactant Trem® 014 (polyhydric alcohol esters). The resulting test suspensions were then used in Tests A-C. Spraying a 40 ppm test suspension to the point of run-off on the test plants was equivalent to a rate of 160 g/ha.
Grape seedlings were inoculated with a spore suspension of Plasmopara viticola (the causal agent of grape downy mildew) and incubated in a saturated atmosphere at 20° C. for 24 h. After a short drying period, the test suspension was sprayed to the point of run-off on the grape seedlings, which were then moved to a growth chamber at 20° C. for 5 days, after which time the grape seedling were placed back into a saturated atmosphere at 20° C. for 24 h. Upon removal, visual disease ratings were made.
Results for Tests A-C are given in Table A. In the table, a rating of 100 indicates 100% disease control and a rating of 0 indicates no disease control (relative to the controls).

[2] = test system: Phytophthora infestans; settings: tomato seedlings; sprayed to run-off, inoculated the following day; visual disease rating; test concentration not given
[3] = test system: Phytophthora infestans; settings: tomato seedlings; inoculated, 17 h later sprayed to run-off; visual disease rating; test concentration not given

Structure (SMILES)	Test A disease control rating (100 = 100% disease control, 0 = no disease control relative to the controls) [1]	Test B disease control rating (100 = 100% disease control, 0 = no disease control relative to the controls) [2]	Test C disease control rating (100 = 100% disease control, 0 = no disease control relative to the controls) [3]
Cc1cc(C(F)(F)F)nn1CC(=O)N1CCC(c2nc(C3=NOC(CCOc4ccccc4I)C3)cs2)CC1 (stereo not drawn) [Compound 1]	86%	99%	91%
Cc1cc(C(F)(F)F)nn1CC(=O)N1CCC(c2nc(C3=NOC(CCOc4c(F)cccc4F)C3)cs2)CC1 (stereo not drawn) [Compound 2, 1-[4-[4-[5-[2-(2,6-difluorophenoxy)ethyl]-4,5-dihydro-3-isoxazolyl]-2-thiazolyl]-1-piperidinyl]-2-[5-methyl-3-(trifluoromethyl)-1H-pyrazol-1-yl]ethanone]	96%	100%	99%
Cc1cc(C(F)(F)F)nn1CC(=O)N1CCC(c2nc(C3=NOC(COCN4C(=O)c5ccccc5C4=O)C3)cs2)CC1 (stereo not drawn) [Compound 3, 2-[[[4,5-dihydro-3-[2-[1-[2-[5-methyl-3-(trifluoromethyl)-1H-pyrazol-1-yl]acetyl]-4-piperidinyl]-4-thiazolyl]-5-isoxazolyl]methoxy]methyl]-1H-isoindole-1,3(2H)-dione]	40%	95%	46%
Cc1cc(C(F)(F)F)nn1CC(=O)N1CCC(c2nc(C3=NOC(CC(=O)NCc4c(F)cccc4F)C3)cs2)CC1 (stereo not drawn) [Compound 4, N-[(2,6-difluorophenyl)methyl]-4,5-dihydro-3-[2-[1-[2-[5-methyl-3-(trifluoromethyl)-1H-pyrazol-1-yl]acetyl]-4-piperidinyl]-4-thiazolyl]-5-isoxazoleacetamide]	24%	100%	99%
Cc1cc(C(F)(F)F)nn1CC(=O)N1CCC(c2nc(C3=NOC(CCCN4C(=O)c5ccccc5C4=O)C3)cs2)CC1 (stereo not drawn) [Compound 5]	67%	100%	99%
Cc1cc(C(F)(F)F)nn1CC(=O)N1CCC(c2nc(C3=NOC(CC(=O)Nc4c(F)cccc4F)C3)cs2)CC1 (stereo not drawn) [Compound 6]	0%	9%	46%
Cc1cc(C(F)(F)F)nn1CC(=O)N1CCC(c2nc(C3=NOC(CCCn4c(=O)sc5ccc(Cl)cc54)C3)cs2)CC1 (stereo not drawn) [Compound 8, 5-chloro-3-[3-[4,5-dihydro-3-[2-[1-[2-[5-methyl-3-(trifluoromethyl)-1H-pyrazol-1-yl]acetyl]-4-piperidinyl]-4-thiazolyl]-5-isoxazolyl]propyl]-2(3H)-benzothiazolone]	0%	100%	0%
Cc1cc(C(F)(F)F)nn1CC(=O)N1CCC(c2nc(C3=NOC(CCON4C(=O)c5ccccc5C4=O)C3)cs2)CC1 (stereo not drawn) [Compound 9]	0%	99%	73%
Cc1cc(C(F)(F)F)nn1CC(=O)N1CCC(c2nc(C3=NOC(COc4c(F)cccc4F)C3)cs2)CC1 (stereo not drawn) [Compound 10]	0%	100%	64%
Cc1cc(C(F)(F)F)nn1CC(=O)N1CCC(c2nc(C3=NOC(CCCOc4c(F)cccc4F)C3)cs2)CC1 (stereo not drawn) [Compound 11]	100%	100%	99%
Cc1cc(C(F)(F)F)nn1CC(=O)N1CCC(c2nc(C3=NOC(CCCCOc4c(F)cccc4F)C3)cs2)CC1 (stereo not drawn) [Compound 12]	100%	99%	92%
COc1ccc(OCCC2CC(c3csc(C4CCN(C(=O)Cn5nc(C(F)(F)F)cc5C)CC4)n3)=NO2)c(F)c1 (stereo not drawn) [Compound 13]	100%	100%	95%
Cc1cc(C(F)(F)F)nn1CC(=O)N1CCC(c2nc(C3=NOC(CCOc4c(F)cc(C#N)cc4F)C3)cs2)CC1 (stereo not drawn) [Compound 14]	99%	100%	73%
Cc1cc(C(F)(F)F)nn1CC(=O)N1CCC(c2nc(C3=NOC(CCOc4ccc(C#N)cc4F)C3)cs2)CC1 (stereo not drawn) [Compound 15]	100%	100%	99%
COc1cc(F)c(OCC2CC(c3csc(C4CCN(C(=O)Cn5nc(C(F)(F)F)cc5C)CC4)n3)=NO2)c(F)c1 (stereo not drawn) [Compound 16]	99%	100%	99%
COC(=O)c1ccc(OCCC2CC(c3csc(C4CCN(C(=O)Cn5nc(C(F)(F)F)cc5C)CC4)n3)=NO2)c(F)c1 (stereo not drawn) [Compound 17]	100%	100%	99%
COc1cc(F)c(OCCC2CC(c3csc(C4CCN(C(=O)Cn5nc(C(F)(F)F)cc5C)CC4)n3)=NO2)c(F)c1 (stereo not drawn) [Compound 18]	79%	71%	17%
